Measurements: patent US9468209B2, “Method for eradicating weeds with derivatives of 3-acetyl-5-sec-butyl-4-hydroxy-3-pyrrolin-2-one” (priority 2012, dated 2016)

Experiments:
Assay in all cases: Leaf piece damage test
Type in all cases: in vivo
Set-up in all cases: key: 4: The leaf completely dead; 3: Two third of the leaf withered; 2: One half of the leaf withered; 1: Only edge of the leaf withered; 0: Not damage at all
Settings in all cases: 50 μg/mL, 4 days
[1] = system: Ambrosia artemisiifolia
Experimental: (§1) Compounds 7, 14, 15, 16, 40, 45, 48 and 53 were dissolved individually in small amount of methanol, and diluted with distilled water to concentration of 50 μg/mL. Methanol water solution and pure water were used as control. A piece of 5 mm leaf was taken from the second leaf of weed sample and was treated with the solution three times. 5 pieces of the leaf were prepared for each treatment. The damage data were collected 4 days later. The measurement of damage level is described in the Table 9.
(§2) The measurement of the plant damage was calculated by the formula: Damage Index=Σ(damage level×number of plants)×100/4/number of plants in each treatment.

[2] = system: Commelina communis
Experimental: as §1, §2

[3] = system: Common polypogon
Experimental: as §1, §2

[4] = system: Conyza canademsis
Experimental: as §1, §2

[5] = system: Crabgrass (Digitaria sanguinalis)
Experimental: as §1, §2

[6] = system: Dichondra repens
Experimental: as §1, §2

[7] = system: Eclipta prostrata
Experimental: as §1, §2

[8] = system: Fimbristylis miliacea
Experimental: as §1, §2

[9] = system: Goose grass
Experimental: as §1, §2

[10] = system: Humulus scandens
Experimental: as §1, §2

[11] = system: Keng stiffgrass
Experimental: as §1, §2

[12] = system: Lamium amplexicaule
Experimental: as §1, §2

[13] = system: Leptochloa chinensis
Experimental: as §1, §2

[14] = system: Malvaceae
Experimental: as §1, §2

[15] = system: Mosla scabra
Experimental: as §1, §2

[16] = system: Parthenocissus tricuspidata
Experimental: as §1, §2

[17] = system: Perilla frutescens
Experimental: as §1, §2

[18] = system: Pharbitis nil
Experimental: as §1, §2

[19] = system: Plantago asiatica
Experimental: as §1, §2

[20] = system: Polygonum hydropiper
Experimental: as §1, §2

[21] = system: Redroot pigweed (Amaramthus retroflexus)
Experimental: as §1, §2

[22] = system: Rumex japonicus
Experimental: as §1, §2

Measured: Damage level

CCCCC1NC(=O)C(C(C)=O)=C1O (stereo not shown) [Compound 14]
3: [1] | [3] | [4] | [7] | [9] | [11]
4: [5] | [13]
1: [22]
2: all other assays above

CCCCCC1NC(=O)C(C(C)=O)=C1O (stereo not shown) [Compound 15]
4: [5] | [7] | [13]
3: [3] | [4] | [9] | [11] | [12] | [16] | [17] | [18] | [19]
2: all other assays above

CCCCCCC1NC(=O)C(C(C)=O)=C1O (stereo not shown) [Compound 16]
2: [12] | [14] | [15] | [16] | [17] | [18] | [19] | [22]
4: [5] | [13]
3: all other assays above

CCCC(Cl)C1NC(=O)C(C(C)=O)=C1O (stereo not shown) [Compound 40]
4: [5] | [9] | [13]
2: [14] | [15] | [16] | [17] | [18] | [20] | [22]
3: all other assays above

CCC(C)C1NC(=O)C(C(=O)CCF)=C1O (stereo not shown) [Compound 44]
2: [2] | [6] | [8] | [10] | [14] | [15] | [21]
4: [1] | [3] | [4] | [5] | [7] | [13]
3: all other assays above

CCC(C)C1NC(=O)C(C(=O)CCc2cc(Cl)cc(Cl)c2)=C1O (stereo not shown) [Compound 48]
4: [2] | [3] | [4] | [5] | [7] | [11] | [13]
2: [12] | [14] | [15] | [17] | [19] | [21] | [22]
3: all other assays above

CCCC(C#N)C1NC(=O)C(=C(C)O)C1=O (stereo not shown) [Compound 53]
2: [6] | [8] | [10] | [12] | [15] | [17] | [19]
4: [3] | [5] | [7] | [9] | [11] | [13]
3: all other assays above
